The results in this text go back to patent publication EP3907227A1, “TRILOBINE DERIVATIVES AND THEIR USE THEREOF IN THE TREATMENT OF MALARIA” (Institut Pasteur, priority 2020, dated 2021).

Read-outs that look alike come from different tables or passages of the source.

For one experiment, the system named is Strain 5248. Briefly: Inhibition of proliferation of multi-resistant field isolates, asynchronous asexual stages, SYBR-green assay. The class given is cell-based, P. falciparum. As to conditions: Plasmodium falciparum; 72h; Cambodian isolate resistant to Chloroquine, Pyrimethamine, Mefloquine and Artemisinin; mean of three replicates; read-out: IC50 nM Strain 5248 mean*. Here is the method: (§1) Compounds 63 and 84 were evaluated regarding the inhibition of the proliferation of multi-resistant field isolates adapted to culture. A panel of four Cambodian strains bearing different molecular markers of resistance were selected: 3D7: Laboratory strain, drug-sensitive, 5150: Cambodian isolate resistant to Chloroquine and Pyrimethamine, 6591: Cambodian isolate resistant to Chloroquine, Pyrimethamine, 5248: Cambodian isolate resistant to Chloroquine, Pyrimethamine, Mefloquine and Artemisinin, 6320: Cambodian isolate resistant to Chloroquine, Pyrimethamine, Piperaquine and Artemisinin.
(§2) IC50 were obtained against asynchronous asexual stages using SYBR-green assay after 72h of incubation with a serial dilution of the compounds. Data represents the mean and SD of 3 independent experiments ran in triplicates. Table 2 illustrates mean IC50 values and their standard deviation in nanomolar.

A further experiment concerns Strain 6591. The experiment is described as above. The format is cell-based, P. falciparum. As to conditions: Plasmodium falciparum; 72h; Cambodian isolate resistant to Chloroquine, Pyrimethamine; mean of three replicates; read-out: IC50 nM Strain 6591 mean*. The method, then:
as §1, §2

In another experiment the test system is Strain 6320. Described as above. The format is cell-based, P. falciparum. The following applies: Plasmodium falciparum; 72h; Cambodian isolate resistant to Chloroquine, Pyrimethamine, Piperaquine and Artemisinin; mean of three replicates; read-out: IC50 nM Strain 6320 mean*. Here is the method:
as §1, §2

A further experiment has as its system Strain 5150. Described as above. The format is cell-based, P. falciparum. As to conditions: Plasmodium falciparum; 72h; Cambodian isolate resistant to Chloroquine and Pyrimethamine; mean of three replicates; read-out: IC50 nM Strain 5150 mean*. The method, then: as §1, §2
Experiment [1] deals with artemisinin-resistant parasites (strains 5150, 6591, 5248 and 6320). The experiment is described as follows: Ring-stage Survival Assay (RSA). The class given is cell-based, P. falciparum. The following applies: 0-3h rings. Here is the method:
Since compounds of the invention are active on early ring stage as shown by the experiments on the cell cycle, their ability to kill artemisinin-resistant parasites in the ring-stage survival assay was tested (strains 5150, 6591, 5248 and 6320, Figure 2).
0-3h synchronized ring-stage parasites were exposed to a treatment of 6h with either DMSO, 700nM dihydroartemisinin (DHA), three times the IC50 value of the compound to test or 700nM DHA in combination with three times the IC50 value of the compound to test. Parasitemia was assessed at 72 hours post-synchronization using giemsa-stained thin blood smears. Percentage of survival was calculated in comparison to a DMSO-treated control. The data were obtained in three independent experiments.

The test system of experiment [2] is P. berghei ANKA strain GFP-expressing parasites. Briefly: In vivo activity, Peters 4-day suppressive test. The following applies: C57BL/6 mice, 10mg/kg i.p. daily for four days. Here is the method: In vivo activity was determined as previously described (Malmquist et al. Antimicrob. Agents Chemother. 2015, 59 (2), 950-959) following the Peters 4-day suppressive test (Peters, Ann. Trop. Med. Parasitol. 1975, 69 (2), 155-171), with slight modifications. C57BL/6 mice were infected intraperitoneally (i.p.) with 10^5 P. berghei ANKA strain GFP-expressing parasites (Ishino et al. Cell. Mol. Microbiol. 2006, 59 (4), 1175-1184). Two hours post-infection, mice were treated i.p. with a daily regimen of 10mg/kg of compound 84, or 25mg/kg of chloroquine, or the equivalent vehicle control (distillated water) for four days. Parasitemia was quantified from blood samples collected every day by flow cytometry of 50,000 RBCs and confirmed by Giemsa-stained blood smears.

In experiment [3] the test system is P. falciparum NF54 (drug-sensitive line). The experiment is described as follows: Inhibition of proliferation of asynchronous asexual cultures (SYBR Green I based assay, 72h). The class given is cell-based. As to conditions: for IC50: SYBR Green I, read-out: Malaria CI50. The method, then: Compounds were provided at a concentration of 10 mM in DMSO.
P. falciparum parasite are cultured using standard protocol (Trager and Jensen, Science 1976, 193(4254), 673-675). Briefly, parasites are cultured at 4% hematocrit (O+ human blood, Etablissement Français du Sang, France) in RPMI1640 complemented with 0.1% Albumax I, HEPES buffer, hypoxanthine, and gentamycin. They are incubated at 37°C under an atmosphere of 5% CO2 and 5% O2.
Compounds of the invention were assayed for a first screen at 5µM in duplicate against asynchronous asexual cultures of P. falciparum NF54 (drug-sensitive line) containing mostly rings (2% hematocrit. 0.5% starting parasitemia). Plates were incubated for 72h at 37°C under a reduced oxygen atmosphere. Parasite growth was assessed using the SYBR Green I based assay.
IC50 were determined using Graphpad Prism 6 software. Dihydroartemisinin (starting concentration 50nM) and DMSO were used as positive and negative controls.

The test system of the next experiment is Parasites. Briefly: Parasite reduction rate (time needed to kill the parasites). The format is cell-based. As to conditions: survival curves, duration of treatment versus log viable parasites, Figure 3. Here is the method: Parasites are incubated (see for example Sanz et al. PLoS ONE 7, e30949 (2012)) with a compound of the invention (or a reference) for different time-windows, washed, and diluted serially in 96-well plates in fresh red blood cells. Parasites are kept in culture for 3 to 4 weeks, when growth is assessed to evaluate the number of parasites that survive-correlated to the number of wells where growth is found. Survival curves are obtained by plotting the duration of treatment versus the log of the number of viable parasites (figure 3).

The subject of a further experiment is Lab. Strain 3D7. Briefly: Inhibition of proliferation, asynchronous asexual stages, SYBR-green assay, laboratory strain. The class given is cell-based, P. falciparum. As to conditions: Plasmodium falciparum, 3D7; 72h; laboratory strain, drug-sensitive; mean of three replicates; read-out: IC50 nM Lab. Strain 3D7 mean*. The method, then: as §1, §2
In a further experiment the test system is asexual NF54 parasites. Briefly: Stage-specificity during the asexual cell cycle (6h treatment windows, Giemsa smears). The format is cell-based, P. falciparum. Here is the method:
To assess stage specificity of compounds of the invention, asexual NF54 parasites were tightly synchronized (0 to 3h post-invasion) using gelatin flotation and 5% D-sorbitol-treatment 3h later. […] Following the 6h-treatment, the corresponding cells were pelleted, washed with 10ml RPMI, and put back into culture in 500uL of complete media in a new plate. Parasitemia was assessed at 72 hours post-synchronization using giemsa-stained thin blood smears. Percentage of survival was calculated in comparison to a DMSO-treated control. The data were obtained in three independent experiments.

Take `COc1cc2c3c4c1Oc1cc5c(cc1O4)C(Cc1ccc(OCCCN(C)C)c(c1)Oc1ccc(cc1)CC3N(C)CC2)N(C)CC5` (stereo not drawn) [Compound 84]: the IC50 came out at 346 nM in the experiment with Strain 5248; 167 nM with Strain 6591; 183 nM in the experiment on Strain 6320; 251 nM in the experiment on Strain 5150; 137 nM in experiment [3] (NF54, 72h); 130 ± 35 nM in experiment [3] (Plasmodium falciparum, NF54, 72 h). In addition, the IC50 in the experiment with Lab. Strain 3D7 was 136 nM. The “Killing of resistant rings (RSA), compound alone” value in [1] (6h treatment with three times the IC50 value, Figure 2) is reported as “kills resistant rings using three times the IC50 value in a similar manner whichever the strain considered”. For the same compound, the “Killing of parasites (RSA), in combination with DHA” value in [1] (6h treatment, three times the IC50 value plus 700nM DHA) was “able to kill the parasites of all the tested strains in combination with 700nM dihydroartemisinin (DHA)”. The Severe malaria symptoms entry in experiment [2] was “do not develop severe malaria symptoms”. This compound gave a Survival after inoculation in [2] of 16 days. For the same compound, in [3] (Plasmodium falciparum, first screen at 5µM in duplicate, 72h, NF54, read-out: % survival @5uM), the activity at 5 µM is 14.9%. Moreover, in the experiment with Parasites, the “Speed of action (parasite reduction rate)” value was “act as fast as dihydroartemisinin (DHA)”. Also, the “Stage-specificity (survival after 6h treatment windows across the 48h cycle)” value in the experiment on asexual NF54 parasites (synchronized NF54, 6h treatment, parasitemia at 72 hours post-synchronization, Figure 1) was “active throughout the 48h cycle with an increased efficiency between 12 and 42h post-invasion”. The “Concentration from which the compound is active (stage-specificity assay)” value with asexual NF54 parasites (tested at one, two and three times the IC50 value) is “active starting from the concentration corresponding to 3 times the IC50 value”.
